Source: patent US20240165123A1, “USE OF A COMPOUND CONTAINING A TRICYCLIC HETEROARYL GROUP” (CSPC Zhongqi Pharmaceutical Technology (Shijiazhuang) Co., …, priority 2021, published 2024)

Key:
[1] = test system: IMQ-induced mouse psoriasis model; assay: Pharmacodynamic test in the IMQ-induced mouse psoriasis model; format: in vivo, female Balb/c mice; parameters: key to Skin PASI score Erythema / Skin PASI score Scaling / Skin PASI score Thickness: PASI component score, 0-4 points; key to Skin PASI Total Score: sum of erythema, scaling, thickness scores (each 0-4); key to Skin pathological score: sum of histopathology criterion points; conditions: Dex 3 mpk PO qd
Text: The purpose of this test was to evaluate the pharmacodynamics of Compound (I) in the IMQ (5% imiquimod cream cream)-induced mouse psoriasis model. One of the clinical adverse effects of imiquimod is to induce the onset of psoriasis.
• Test medicament: Compound (I) • Positive control medicament: dexamethasone (Dex) • Vehicle: 0.4% Tween 80/0.5% methylcellulose.
• female Balb/c mice aged 5-6 weeks, number: 70.
The animals were randomly divided into seven groups according to the body weights on the day before the start of the experiment.
The animals were shaved on their back one day before applying the medicament, forming a skin exposure area having a size of about 2 cm×3 cm. The mice were induced by IMQ, and applied with 62.5 mg of 5% imiquimod cream on the bare back and the right ear at regular intervals every day for 14 days. Mice in the normal control group were applied with vaseline on the bare back and the right ear at regular intervals every day.
The skin thickness was measured daily from the first day of the test until the end of the test.
The skin thickness measurement method was as follows: the back skin and the subcutaneous tissue of the mouse were pinched with the thumb and the index finger of the left hand in the same direction as the mouse body; the skinfold thickness was measured 1 cm away from the pinched part of the left hand (near the center of the molding part) with a digital thickness gauge (with millesimal reading) held in the right hand (model BK-3281, manufacturer: Shanghai Niuhui). The thickness was in mm, and the actual thickness was the half of the measured thickness (the skin thickness=the measured value/2).
The ear thickness was measured daily (at the center of the auricle).
Skin photographs were taken daily from the first day of the test until the end of the test.
The clinical symptoms were evaluated with the PASI evaluation standard from three indicators of the erythema (Erythema), the scale (Scaling) and the skin thickness (Thickness), and scored with 0-4 points. The total score was obtained by summing the three scores. The PASI evaluation standard was as follows: 0, asymptomatic; 1, mild; 2, moderate; 3, severe; 4, extremely severe.
Erythema: 0—no erythema visible; 1—light red; 2—red; 3—dark red; 4—extremely dark red.
Scaling: 0—no visible scale on the skin surface; 1—part of the skin lesion surface covered with scales; 2—most of the skin lesion surface covered with scales; 3—almost all of the skin lesion region covered with scales; 4—all of the skin lesion region covered with scales.
Dryness and pruritus are not included in the total score.
On the 14th day of the test, the spleen weight was collected.
After the test, all mice were euthanized by excessive inhalation of carbon dioxide. The skin was collected and divided into four parts, one of which was fixed in a tissue fixative solution for 24 hours for the pathological is detection. It was dehydrated, then embedded in paraffin and made into 4-micron sections. Skin sections were stained with hematoxylin eosin to observe the infiltration of the stratum corneum, the epidermal layer, the dermis layer and the inflammatory cell. When measuring the thickness of the epidermal layer, the stained skin sections were scanned with a Leca Aperio CS2 scanner at 200×magnification, and then the histopathological changes were observed and scored.
The specific criteria of the pathological score were as follows: munro microabscess found in the epidermal layer 2.0 points; hyperkeratosis 0.5 points; parakeratosis 1.0 points; the thinning or disappearing of the granular layer 1.0 points; the thickening of acanthosis 1.0 points; the extension and fluctuation of cuticular process 0.5, 1.0 and 1.5 points respectively according to the mild, moderate and severe degrees. […]

[2] = test system: OXA-induced Balb/c mouse atopic dermatitis model; assay: Pharmacodynamic test in the OXA-induced mouse atopic dermatitis model; format: in vivo, female Balb/c mice
Text: The purpose of this test was to evaluate the pharmacodynamics of Compound (I) in the OXA-induced Balb/c mouse atopic dermatitis model. Repeated OXA stimulation of the dorsal skin of mice could produce a long-term inflammatory reaction. This model was closer to the clinical skin inflammation and was a common model for screening and evaluating compounds with anti-inflammatory activity.
Female Balb/c mice aged 8-9 weeks, number: 70
According to the body weight of animals in each group before administration, they were randomly divided into 7 groups with 10 animals in each group.
OXA induction was performed on the 7th day. The induction mode was to apply 5% OXA (dissolved in the acetone/olive oil (4/1) solvent) to the back of mice near the neck in an amount of 10 μL (1.5 cm×1.5 cm). Mice in the normal control group were applied with 10 μL of the acetone/olive oil (4/1) solvent in the same way. From the 1st da to 22nd day, the immunostimulation was performed, and 100 μL of 0.1% OXA (dissolved in the acetone/olive oil (4/1) solvent) was evenly applied on the back of mice near the neck. The application was performed every two days. Mice in the normal control group were applied with 100 μL of the acetone/olive oil (4/1) solvent in the same way. On the day of the immunostimulation, measuring the skin thickness, clinically scoring and photographing were required, and the OXA application was carried out after the above work was completed.
Compound (I) was administered by gavage twice a day (PO, bid) from the 1st to 22nd day. The administration was performed in the morning and completed before measuring the skin thickness, clinically scoring, photographing, and the OXA immunostimulation. The interval between two administrations was 8 hours.
Body weight data were recorded twice a week.
Skin thickness (1.5 cm×1.5 cm, the modeling area) was measured with a Mitutoyo digital indicator (Mitutoyo digimatic indicator, Type ID-C, USA) from the 1st to 22nd day. The measurement was performed every two days. If the skin thickness measurement and the OXA immunostimulation were performed on the same day, the skin thickness measurement would be preferred.
The skin in the modeling area was clinically scored according to the skin scoring criteria in Table 12 from the 1st to 22nd day and evaluated every two days. If the skin clinical scoring and the OXA immunostimulation were performed on the same day, the skin clinical scoring would be preferred.
At the end of the study, the tissue in the modeling area was stained with hematoxylin eosin for the skin pathological scoring and the epidermal thickness measurement.
After the mice were sacrificed, the dorsal skin was removed and fixed in 10% neutral formalin for 24 hours. It was dehydrated, then embedded in paraffin and made into 4-micron sections. The skin sections were stained with hematoxylin eosin, and the inflammatory cell infiltration and tissue changes in the stratum corneum, the epidermis layer and the dermis layer were observed under the microscope, and the pathological scores were made. The scoring criteria were: inflammatory cell aggregation and edema, which were divided into slight 1 point, moderate 2 points, and severe 3 points; telangiectasia, which was divided into slight 1 point, moderate 2 points, and severe 3 points.
The specific scoring criteria of inflammatory cell aggregation were as follows: (1) slight-1 point: inflammatory cells occupied a small amount of <10% of the dermal area of the skin; (2) moderate-2 points: inflammatory cells occupied 10%-50% of the dermal area of the skin; (3) severe-3 points: the inflammatory cells occupied greater than 50% of the dermal area of the skin. […]

[3] = Dexamethasone 3 mpk PO qd, 1st Day

With `C[C@@H]1C[C@H]2[C@@H]3CCC4=CC(=O)C=C[C@]4(C)[C@@]3(F)[C@@H](O)C[C@]2(C)[C@@]1(O)C(=O)CO` [Dexamethasone, reference compound] as the compound, how does the “Ear thickness Left” value ([1]; 1st Day) read?
The value was 0.14 ± 0.00 mm.

And the “Ear thickness Right” value ([1]; 1st Day)?
Its value is 0.14 ± 0.00 mm.

And the “Ear thickness Right-Left” value ([1]; 1st Day)?
Its value is 0.00 ± 0.00 mm.

And the “Skin PASI Total Score” value ([1]; 1st Day)?
Its value is 0.00 ± 0.00.

What about the “Skin PASI score Erythema” value ([1]; 1st Day) of the same compound?
Its value is 0.00 ± 0.00.

What about the “Skin PASI score Scaling” value ([1]; 1st Day) of the same compound?
Its value is 0.00 ± 0.00.

What about the “Skin PASI score Thickness” value ([1]; 1st Day) of the same compound?
The value was 0.00 ± 0.00.

And the Skin thickness ([1]; 1st Day)?
Its Skin thickness is 0.32 ± 0.00 mm.

And the “Ear thickness Left” value ([1]; 14th Day)?
The value was 0.15 ± 0.00 mm.

And the “Ear thickness Right” value ([1]; 14th Day)?
Its value is 0.33 ± 0.01 mm.

And the “Ear thickness Right-Left” value ([1]; 14th Day)?
The value was 0.18 ± 0.00 mm.

What about the “Skin PASI Total Score” value ([1]; 14th Day) of the same compound?
The value was 4.10 ± 0.18.

What about the “Skin PASI score Erythema” value ([1]; 14th Day) of the same compound?
The value was 2.10 ± 0.10.

And the “Skin PASI score Scaling” value ([1]; 14th Day)?
Its value is 1.10 ± 0.10.

What about the “Skin PASI score Thickness” value ([1]; 14th Day) of the same compound?
Its value is 0.90 ± 0.10.

And the Skin thickness ([1]; 14th Day)?
The Skin thickness was 0.32 ± 0.01 mm.

What about the Epidermal thickness ([1]; after 14 days of treatment) of the same compound?
The Epidermal thickness was 84.98 ± 7.40 μm.

What about the “IL-6 content in skin (ELISA)” value ([1]; after 14 days of treatment) of the same compound?
Its value is 607.20 ± 76.89 pg/g.

What about the Skin pathological score ([1]; after 14 days of treatment) of the same compound?
Its Skin pathological score is 3.95 ± 0.50.

And the Spleen weight ([1]; after 14 days of treatment)?
The Spleen weight was 93.79 ± 4.64 mg.

What about the “Spleen weight/body weight (spleen index)” value ([1]; after 14 days of treatment) of the same compound?
Its value is 6.17 ± 0.29 mg/g.

And the “TNF-alpha content in skin (ELISA)” value ([1]; after 14 days of treatment)?
Its value is 1172.53 ± 115.72 pg/g.

And the Body weight [2, 3]?
Its Body weight is 18.08 ± 0.12 g.

And the Skin clinical score [2, 3]?
Its Skin clinical score is 0.4 ± 0.16.

What about the “Skin thickness (modeling area)” value ([2]; Dexamethasone 3 mpk PO qd, 1st day) of the same compound?
The value was 0.532 ± 0.012 mm.

And the Body weight ([2]; Dexamethasone 3 mpk PO qd, −7th Day)?
The Body weight was 18.08 ± 0.12 g.

And the “Influence on the body weight of mice” value ([2]; dexamethasone 3 mpk PO qd, end of the study)?
The value was “decreased significantly”.
